Test results reported in patent US8741896B2, “Pyrazolopyrimidine derivatives” (Merck Patent GmbH, priority 2009, dated 2014).

Assays:
PI3Kγ = PI3Kγ (Homo sapiens, UniProt P48736); assay: PI3 kinase inhibition bioassay (PI3Kγ); assay type: biochemical
PI3Kδ = PI3Kδ (Homo sapiens, UniProt O00329); assay: PI3 kinase inhibition bioassay (PI3Kδ); assay type: biochemical
PI3Kβ = PI3Kβ (Homo sapiens, UniProt P42338); assay: PI3 kinase inhibition bioassay (PI3Kβ); assay type: biochemical
PI3Kα = PI3Kα (Homo sapiens, UniProt P42336); assay: PI3 kinase inhibition bioassay (PI3Kα); assay type: biochemical
Sequence of PI3Kα (P42336 whole entry, species assumed): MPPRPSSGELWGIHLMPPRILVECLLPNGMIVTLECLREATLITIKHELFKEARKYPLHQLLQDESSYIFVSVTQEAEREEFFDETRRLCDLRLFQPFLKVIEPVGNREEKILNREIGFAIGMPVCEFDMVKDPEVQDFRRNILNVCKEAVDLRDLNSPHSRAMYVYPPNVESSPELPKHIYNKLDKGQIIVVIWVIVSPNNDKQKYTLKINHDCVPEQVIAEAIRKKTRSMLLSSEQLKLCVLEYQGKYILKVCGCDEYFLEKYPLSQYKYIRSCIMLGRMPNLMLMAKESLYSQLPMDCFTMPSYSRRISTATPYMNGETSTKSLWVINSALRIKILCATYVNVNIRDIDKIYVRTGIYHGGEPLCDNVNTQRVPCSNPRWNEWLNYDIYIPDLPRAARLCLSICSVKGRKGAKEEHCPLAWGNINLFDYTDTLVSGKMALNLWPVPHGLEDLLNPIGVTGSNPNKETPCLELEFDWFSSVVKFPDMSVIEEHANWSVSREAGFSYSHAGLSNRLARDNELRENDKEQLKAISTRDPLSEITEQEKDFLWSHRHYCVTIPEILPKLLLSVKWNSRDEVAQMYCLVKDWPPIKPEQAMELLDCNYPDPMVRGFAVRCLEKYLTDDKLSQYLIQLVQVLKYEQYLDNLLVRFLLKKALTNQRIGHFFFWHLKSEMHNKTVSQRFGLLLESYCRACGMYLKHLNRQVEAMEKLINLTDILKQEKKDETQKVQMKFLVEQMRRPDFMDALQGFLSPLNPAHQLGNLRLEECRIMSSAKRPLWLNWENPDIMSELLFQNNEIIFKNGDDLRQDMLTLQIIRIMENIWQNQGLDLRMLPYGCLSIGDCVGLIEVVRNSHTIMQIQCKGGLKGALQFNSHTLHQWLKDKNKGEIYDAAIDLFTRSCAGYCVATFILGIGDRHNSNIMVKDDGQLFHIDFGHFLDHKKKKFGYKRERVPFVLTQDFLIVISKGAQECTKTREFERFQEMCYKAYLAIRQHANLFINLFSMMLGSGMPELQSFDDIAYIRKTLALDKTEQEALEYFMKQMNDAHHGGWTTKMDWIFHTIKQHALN
Sequence of PI3Kα (P27986 whole entry partner, species assumed): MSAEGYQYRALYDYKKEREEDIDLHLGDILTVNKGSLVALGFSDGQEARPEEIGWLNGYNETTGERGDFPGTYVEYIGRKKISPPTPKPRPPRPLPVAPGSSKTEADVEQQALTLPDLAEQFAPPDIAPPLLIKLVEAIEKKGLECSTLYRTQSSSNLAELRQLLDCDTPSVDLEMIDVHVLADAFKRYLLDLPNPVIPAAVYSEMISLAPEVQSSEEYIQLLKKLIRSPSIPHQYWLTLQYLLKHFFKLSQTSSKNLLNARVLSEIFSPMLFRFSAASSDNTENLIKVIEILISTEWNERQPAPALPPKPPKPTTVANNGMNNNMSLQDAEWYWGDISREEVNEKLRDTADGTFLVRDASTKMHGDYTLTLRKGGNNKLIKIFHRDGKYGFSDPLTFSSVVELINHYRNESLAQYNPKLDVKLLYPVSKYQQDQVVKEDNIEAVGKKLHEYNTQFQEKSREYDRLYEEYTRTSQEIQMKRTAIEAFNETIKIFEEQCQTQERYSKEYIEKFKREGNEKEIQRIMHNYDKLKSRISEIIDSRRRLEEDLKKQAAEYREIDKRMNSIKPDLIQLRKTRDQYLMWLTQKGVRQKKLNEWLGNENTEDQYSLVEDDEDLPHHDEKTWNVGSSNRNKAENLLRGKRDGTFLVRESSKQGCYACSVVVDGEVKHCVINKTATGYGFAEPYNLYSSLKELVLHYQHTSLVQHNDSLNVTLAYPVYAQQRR

CK2 protein kinase = CK2 protein kinase (Homo sapiens, UniProt P68400); conditions: cited from earlier work

Sequence of PI3Kδ (O00329 whole entry, species assumed): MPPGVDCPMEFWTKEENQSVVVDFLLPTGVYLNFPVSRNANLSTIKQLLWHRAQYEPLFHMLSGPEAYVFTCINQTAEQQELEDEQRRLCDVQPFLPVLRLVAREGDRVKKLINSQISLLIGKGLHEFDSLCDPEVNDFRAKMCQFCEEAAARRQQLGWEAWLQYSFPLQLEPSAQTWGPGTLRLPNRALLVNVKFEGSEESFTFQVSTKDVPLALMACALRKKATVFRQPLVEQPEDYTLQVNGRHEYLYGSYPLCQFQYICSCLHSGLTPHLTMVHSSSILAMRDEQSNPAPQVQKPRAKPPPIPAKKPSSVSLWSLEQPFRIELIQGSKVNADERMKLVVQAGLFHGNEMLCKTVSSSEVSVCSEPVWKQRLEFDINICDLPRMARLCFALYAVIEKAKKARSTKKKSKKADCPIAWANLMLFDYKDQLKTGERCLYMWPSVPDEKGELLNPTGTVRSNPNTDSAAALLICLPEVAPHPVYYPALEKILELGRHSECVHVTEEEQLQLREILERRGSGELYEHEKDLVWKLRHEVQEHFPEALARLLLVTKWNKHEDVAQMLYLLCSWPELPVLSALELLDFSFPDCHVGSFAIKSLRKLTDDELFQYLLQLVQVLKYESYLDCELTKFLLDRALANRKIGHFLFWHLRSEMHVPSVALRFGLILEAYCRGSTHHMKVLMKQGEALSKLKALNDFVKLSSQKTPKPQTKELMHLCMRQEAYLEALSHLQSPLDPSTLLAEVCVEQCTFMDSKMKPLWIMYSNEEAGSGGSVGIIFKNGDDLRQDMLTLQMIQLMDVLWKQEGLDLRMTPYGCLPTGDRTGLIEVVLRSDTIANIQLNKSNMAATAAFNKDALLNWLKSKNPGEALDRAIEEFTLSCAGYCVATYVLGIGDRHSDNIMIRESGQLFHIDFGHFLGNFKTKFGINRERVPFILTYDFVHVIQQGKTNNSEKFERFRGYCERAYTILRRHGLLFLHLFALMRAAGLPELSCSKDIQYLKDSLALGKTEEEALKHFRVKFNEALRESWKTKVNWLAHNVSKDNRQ
Sequence of PI3Kδ (P27986 whole entry partner, species assumed): as the sequence (P27986 whole entry partner, species assumed) above
Sequence of PI3Kγ (P48736 whole entry, species assumed): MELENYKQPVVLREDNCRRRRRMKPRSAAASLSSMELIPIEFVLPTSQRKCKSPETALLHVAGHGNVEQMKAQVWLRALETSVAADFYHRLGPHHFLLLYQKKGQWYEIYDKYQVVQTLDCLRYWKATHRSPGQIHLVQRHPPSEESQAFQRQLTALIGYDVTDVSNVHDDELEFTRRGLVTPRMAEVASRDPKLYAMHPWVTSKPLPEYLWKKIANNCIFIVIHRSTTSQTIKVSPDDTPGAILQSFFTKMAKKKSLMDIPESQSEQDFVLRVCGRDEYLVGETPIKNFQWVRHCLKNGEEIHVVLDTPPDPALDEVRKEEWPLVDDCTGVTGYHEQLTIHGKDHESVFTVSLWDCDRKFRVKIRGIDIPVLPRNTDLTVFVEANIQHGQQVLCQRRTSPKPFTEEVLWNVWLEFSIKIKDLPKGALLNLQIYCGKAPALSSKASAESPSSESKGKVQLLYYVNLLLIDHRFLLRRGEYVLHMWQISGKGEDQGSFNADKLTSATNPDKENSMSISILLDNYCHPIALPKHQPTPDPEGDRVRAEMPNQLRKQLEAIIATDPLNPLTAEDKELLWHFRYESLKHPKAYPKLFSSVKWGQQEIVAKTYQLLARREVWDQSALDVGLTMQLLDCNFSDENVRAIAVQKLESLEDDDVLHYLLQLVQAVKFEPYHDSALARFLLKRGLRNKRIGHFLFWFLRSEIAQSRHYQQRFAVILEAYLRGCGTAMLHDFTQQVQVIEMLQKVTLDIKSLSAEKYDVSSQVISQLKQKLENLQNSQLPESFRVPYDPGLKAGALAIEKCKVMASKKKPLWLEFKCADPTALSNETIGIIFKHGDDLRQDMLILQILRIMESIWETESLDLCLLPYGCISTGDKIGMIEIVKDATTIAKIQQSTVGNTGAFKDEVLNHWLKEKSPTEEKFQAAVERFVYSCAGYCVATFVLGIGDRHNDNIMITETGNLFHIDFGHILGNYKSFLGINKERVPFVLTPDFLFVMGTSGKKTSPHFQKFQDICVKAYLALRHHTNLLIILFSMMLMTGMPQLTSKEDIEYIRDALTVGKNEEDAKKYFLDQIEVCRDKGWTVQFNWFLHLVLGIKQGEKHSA
Sequence of PI3Kβ (P42338 whole entry, species assumed): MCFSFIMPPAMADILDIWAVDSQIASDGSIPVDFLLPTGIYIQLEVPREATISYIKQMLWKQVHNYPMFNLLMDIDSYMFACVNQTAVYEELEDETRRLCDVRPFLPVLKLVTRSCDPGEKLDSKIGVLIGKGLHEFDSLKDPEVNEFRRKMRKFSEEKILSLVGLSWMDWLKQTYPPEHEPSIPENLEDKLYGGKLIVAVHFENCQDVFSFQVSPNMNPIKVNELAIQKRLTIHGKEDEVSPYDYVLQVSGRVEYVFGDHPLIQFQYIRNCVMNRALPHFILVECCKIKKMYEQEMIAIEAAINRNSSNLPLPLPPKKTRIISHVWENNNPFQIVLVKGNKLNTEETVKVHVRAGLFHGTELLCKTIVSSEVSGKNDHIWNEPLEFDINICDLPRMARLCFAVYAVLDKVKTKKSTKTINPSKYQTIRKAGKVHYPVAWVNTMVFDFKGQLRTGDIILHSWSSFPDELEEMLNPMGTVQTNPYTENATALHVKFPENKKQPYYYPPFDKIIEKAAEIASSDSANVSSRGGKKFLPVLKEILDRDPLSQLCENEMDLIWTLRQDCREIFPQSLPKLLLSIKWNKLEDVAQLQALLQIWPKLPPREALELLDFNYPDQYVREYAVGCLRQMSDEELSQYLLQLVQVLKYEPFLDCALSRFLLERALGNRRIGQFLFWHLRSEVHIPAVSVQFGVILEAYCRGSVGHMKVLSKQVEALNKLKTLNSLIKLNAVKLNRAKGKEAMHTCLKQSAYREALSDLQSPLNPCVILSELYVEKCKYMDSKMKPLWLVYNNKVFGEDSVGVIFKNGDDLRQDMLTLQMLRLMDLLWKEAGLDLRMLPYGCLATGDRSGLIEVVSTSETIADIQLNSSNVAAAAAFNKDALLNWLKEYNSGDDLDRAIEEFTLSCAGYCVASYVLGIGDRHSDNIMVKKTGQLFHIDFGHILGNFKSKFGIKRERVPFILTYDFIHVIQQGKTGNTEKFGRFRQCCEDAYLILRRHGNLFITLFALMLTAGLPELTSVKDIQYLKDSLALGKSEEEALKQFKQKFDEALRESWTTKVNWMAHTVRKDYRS
Sequence of PI3Kβ (P27986 whole entry partner, species assumed): as the sequence (P27986 whole entry partner, species assumed) above

SMILES | IC50 (PI3Kγ) [µM] | IC50 (PI3Kδ) [µM] | IC50 (PI3Kβ) [µM] | IC50 (PI3Kα) [µM] | IC50 (CK2 protein kinase) [µM]
Cn1ncc2c(-c3cccc(O)c3)nc(N3CCOCC3)nc21 [Compound A1, 3-(1-methyl-6-morpholin-4-yl-1H-pyrazolo[3,4-d]pyrimidin-4-yl)phenol] | 0.1 to 10 | 0.1 to 10 | 0.1 to 10 | 0.1 to 10 | –
Cn1ncc2c(-c3cccc(CO)c3)nc(N3CCOCC3)nc21 [Compound A33, [3-(1-methyl-6-morpholin-4-yl-1H-pyrazolo[3,4-d]pyrimidin-4-yl)phenyl]methanol] | 0.1 to 10 | 0.1 to 10 | 0.1 to 10 | 0.1 to 10 | –
Cn1ncc2c(-c3ccc4cc[nH]c4c3)nc(N3CCOCC3)nc21 [Compound A65, 4-(1H-indol-6-yl)-1-methyl-6-morpholin-4-yl-1H-pyrazolo-[3,4-d]pyrimidine] | 0.1 to 10 | > 10 | > 10 | > 10 | –
Cn1ncc2c(-c3cccc4[nH]ccc34)nc(N3CCOCC3)nc21 [Compound A97, 4-(1H-indol-4-yl)-1-methyl-6-morpholin-4-yl-1H-pyrazolo[3,4-d]pyrimidine] | > 10 | 0.1 to 10 | 0.1 to 10 | 0.1 to 10 | –
Cn1ncc2c(-c3ccc4[nH]cnc4c3)nc(N3CCOCC3)nc21 [Compound A129, 4-(1H-benzimidazol-5-yl)-1-methyl-6-morpholin-4-yl-1H-pyrazolo[3,4-d]pyrimidine] | 0.1 to 10 | 0.1 to 10 | 0.1 to 10 | 0.1 to 10 | –
Cn1ncc2c(-c3cccc4[nH]ncc34)nc(N3CCOCC3)nc21 [Compound A161, 4-(1H-indazol-4-yl)-1-methyl-6-morpholin-4-yl-1H-pyrazolo-[3,4-d]pyrimidine] | 0.1 to 10 | 0.1 to 10 | 0.1 to 10 | 0.1 to 10 | –
Cn1ncc2c(-c3ccc(N)nc3)nc(N3CCOCC3)nc21 [Compound A193, 5-(1-methyl-6-morpholin-4-yl-1H-pyrazolo[3,4-d]pyrimidin-4-yl)pyridin-2-ylamine] | 0.1 to 10 | 0.1 to 10 | 0.1 to 10 | 0.1 to 10 | –
Nc1ccc(-c2nc(N3CCOCC3)nc3c2cnn3CC(=O)N2CCCC2)cn1 [Compound A196] | > 10 | 0.1 to 10 | > 10 | 0.1 to 10 | –
Cn1ncc2c(-c3cnc(N)nc3)nc(N3CCOCC3)nc21 [Compound A225, 5-(1-methyl-6-morpholin-4-yl-1H-pyrazolo[3,4-d]pyrimidin-4-yl)pyrimidin-2-ylamine] | 0.1 to 10 | 0.1 to 10 | 0.1 to 10 | 0.1 to 10 | –
Nc1ncc(-c2nc(N3CCOCC3)nc3c2cnn3CC(=O)N2CCCC2)cn1 [Compound A228] | 0.1 to 10 | 0.1 to 10 | 0.1 to 10 | 0.1 to 10 | –
Nc1ncc(-c2nc(N3CCOCC3)nc3c2cnn3CC(=O)N2CCOCC2)cn1 [Compound A229] | 0.1 to 10 | 0.1 to 10 | 0.1 to 10 | 0.1 to 10 | –
CN1CCN(C(=O)Cn2ncc3c(-c4cnc(N)nc4)nc(N4CCOCC4)nc32)CC1 [Compound A231] | 0.1 to 10 | 0.1 to 10 | 0.1 to 10 | 0.1 to 10 | –
O=c1cc(N2CCOCC2)oc2c(-c3ccccc3)cccc12 [LY294002] | – | – | – | – | 5 to 10
